Legend:
Assay type in all cases: functional
CAKI-1 = assay: Cytotoxicity against human Caki1 cells assessed as cellular growth at 10 uM by SRB assay
U-251 = assay: Cytotoxicity against human U251 cells assessed as cellular growth at 10 uM by SRB assay
SF-268 = assay: Cytotoxicity against human SF268 cells assessed as cellular growth at 10 uM by SRB assay
NCI-H522 = assay: Cytotoxicity against human NCI-H522 cells assessed as cellular growth at 10 uM by SRB assay
RPMI-8226 = assay: Cytotoxicity against human RPMI8226 cells assessed as cellular growth at 10 uM by SRB assay
UACC-257 = assay: Cytotoxicity against human UACC257 cells assessed as cellular growth at 10 uM by SRB assay
PC-3 = assay: Cytotoxicity against human PC3 cells assessed as cellular growth at 10 uM by SRB assay
SW-620 = assay: Cytotoxicity against human SW620 cells assessed as cellular growth at 10 uM by SRB assay
BT-549 = assay: Cytotoxicity against human BT549 cells assessed as cellular growth at 10 uM by SRB assay
Hs-578T = assay: Cytotoxicity against human Hs578T cells assessed as cellular growth at 10 uM by SRB assay
NCI-H23 = assay: Cytotoxicity against human NCI-H23 cells assessed as cellular growth at 10 uM by SRB assay
CCRF-CEM = assay: Cytotoxicity against human CCRF-CEM cells assessed as cellular growth at 10 uM by SRB assay
HCT-15 = assay: Cytotoxicity against human HCT15 cells assessed as cellular growth at 10 uM by SRB assay
SN12C = assay: Cytotoxicity against human SN12C cells assessed as cellular growth at 10 uM by SRB assay
KM12 = assay: Cytotoxicity against human KM12 cells assessed as cellular growth at 10 uM by SRB assay
M14 = assay: Cytotoxicity against human M14 cells assessed as cellular growth at 10 uM by SRB assay
UACC-62 = assay: Cytotoxicity against human UACC62 cells assessed as cellular growth at 10 uM by SRB assay
RXF 393 = assay: Cytotoxicity against human RXF393 cells assessed as cellular growth at 10 uM by SRB assay
HCC 2998 = assay: Cytotoxicity against human HCC2998 cells assessed as cellular growth at 10 uM by SRB assay
A498 = assay: Cytotoxicity against human A498 cells assessed as cellular growth at 10 uM by SRB assay

SMILES | Activity (CAKI-1) [%] | Activity (U-251) [%] | Activity (SF-268) [%] | Activity (NCI-H522) [%] | Activity (RPMI-8226) [%] | Activity (UACC-257) [%] | Activity (PC-3) [%] | Activity (SW-620) [%] | Activity (BT-549) [%] | Activity (Hs-578T) [%] | Activity (NCI-H23) [%] | Activity (CCRF-CEM) [%] | Activity (HCT-15) [%] | Activity (SN12C) [%] | Activity (KM12) [%] | Activity (M14) [%] | Activity (UACC-62) [%] | Activity (RXF 393) [%] | Activity (HCC 2998) [%] | Activity (A498) [%]
Cc1ccc(C2=N/C(=C\c3ccccc3)C(=O)O2)cc1 | 101.22 | 107.92 | 98.83 | 95.94 | 102.87 | 101.52 | 104.18 | 102.61 | 103.91 | 96.01 | 101.26 | 94.95 | 100.23 | 98.61 | 108.78 | 108.05 | 101.68 | 130.71 | 99.84 | 
Nc1c(C(=O)Nc2ccccc2)sc2nc3c(cc12)C(=O)CCC3 | 54.68 | 25.69 | 53.38 | -33.85 | 30.21 | 52.83 | 21.62 | 27.25 | 65.66 | 37.53 | 39.48 | 16.76 | 27.18 | 59.85 | 19.9 | 1.11 | 44.06 | -9.9 | 21.89 | 37.32
CC1(C)CC(=O)c2cc3c(N)c(C(=O)NCc4ccccc4)sc3nc2C1 | 110.35 | 99.82 | 102.72 | 92.67 | 101.22 | 104.6 | 95.51 | 111.03 | 110.98 | 123.14 | 97.31 | 99.55 | 100.56 | 98.59 | 105.75 | 98.42 | 102.76 | 93.07 | 101.88 | 89.05
O=C(Nc1nc2ccc(Cl)cc2s1)c1ccc(Cl)cc1Cl | 79.85 | 93.57 | 111.47 | 98.66 | 91.09 | 95.43 | 97.1 | 111.18 | 111.68 | 113.99 | 99 | 99.34 | 100.27 | 113.76 | 110.91 | 115.13 | 96.19 | 112.15 | 97.08 | 93.8
N#Cc1ccc(-n2nnc3ccccc32)cc1C#N | 85.44 | 91.31 | 105 | 88.08 | 100.67 | 89.4 | 100.51 | 94.36 | 106.48 | 105.04 | 94 | 93.15 | 99.78 | 101.03 | 96.37 | 106.26 | 94.5 | 100.39 | 103.78 | 72.76
O=C(Nc1ccc2oc(=O)ccc2c1)c1ccc(-c2ccc(Cl)c(Cl)c2)o1 | 87.9 | 92.91 | 85.02 | 70.34 | 70.14 | 97.36 | 73.29 | 100.55 | 77.96 | 145.42 | 97.86 | 57.99 | 72.06 | 86.83 | 73.78 | 100.99 | 75.33 | 98.99 | 100.84 | 101.16
Cc1ccc(Cl)cc1NC(=O)c1sc2nc3c(cc2c1N)C(=O)CCC3 | 41.45 | 59.13 | 74.86 | 22.92 | 95.05 | 44.88 | 55.81 | 36.54 | 93.5 | 60.85 | 63.04 | 49.18 | 45.91 | 80.57 | 37.01 | 62.9 | 53.09 | 42.15 | 74.86 | 51.16
Nc1c(C(=O)Nc2cccc(Cl)c2)sc2nc3c(cc12)C(=O)CCC3 | 40.31 | 46.41 | 63.09 | 14.59 | 51.81 | 68.88 | 29.1 | 31.28 | 66.38 | 4.53 | 38 | 13.46 | 32.41 | 54.42 | 21.64 | 26.93 | 43.7 | 25.93 | 8.27 | 49.32
Cc1cc(C)c(NC(=O)c2sc3nc4c(cc3c2N)C(=O)CCC4)c(C)c1 | -22.19 | 21.13 | 38.6 | -14.71 | 31.83 | 48.69 | 23.46 | 15.59 | 56.75 | 17.68 | 33.04 | 22.12 | 31.78 |  | 27.28 | 16.41 | 23.22 | -6.65 | 30.95 | -7.37
Cc1ccc(CNC(=O)c2[nH]c3ccccc3c2Cl)cc1 | 90.46 | 92.16 | 86.83 | 106.22 | 101.73 | 101.14 | 93.19 | 89.73 | 115.69 | 95.86 | 95.25 | 99.93 | 106.3 | 99.14 | 89.46 | 115.09 | 100.21 | 109.98 | 101.22 | 69
COc1cccc(C(=O)Nc2nc3ccc(Cl)cc3s2)c1 | 68.42 | 87.76 | 106.92 | 78.29 | 84.4 | 94.74 | 78.16 | 88.38 | 101.44 | 110.55 | 81.36 | 81.01 | 71.29 | 101.74 | 49.84 | 102.54 | 87.44 | 102.21 | 93.56 | 86.56
Nc1c(C(=O)Nc2ccc(Cl)c(Cl)c2)sc2nc(-c3cccs3)ccc12 | 95.41 | 83.86 | 85.77 | 81.53 | 87.02 | 91.24 | 85.43 | 105.33 | 76.11 | 129.34 | 68.82 | 82.99 | 92.1 | 89.08 | 99.94 | 87.97 | 79.48 | 92.71 | 98.35 | 
Cc1ccc2c(c1)N/C(=C/C(=O)c1ccc(Cl)cc1)C(=O)O2 | 105.93 | 100.94 | 105.3 | 81.38 | 64.3 | 97.03 | 87.2 | 114.93 | 109.64 | 113.45 | 98.65 | 65.56 | 99.12 | 93.53 | 102.59 | 108.88 | 93.82 | 111.43 | 108.44 | 
COc1ccc(Cl)cc1C(=O)Nc1nc2ccc(Cl)cc2s1 | 84.36 | 87.26 | 83.22 | 99.37 | 80.55 | 101.95 | 84.45 | 100.98 | 97.73 | 102.47 | 90.46 | 86.4 | 86.52 | 91.7 | 94.77 | 95.14 | 91.53 | 95.02 | 102.29 | 
Cc1cccc(-c2nc(-c3cccs3)no2)c1 | 77.92 | 82.28 | 112.75 | 90.03 | 92.97 | 93.98 | 80.3 | 90.68 | 88.13 | 81.63 | 89.36 | 91.12 | 83.75 |  | 104.19 | 102.43 | 86.85 | 126.03 | 80.51 | 82.09
O=c1/c(=C/c2ccccc2Cl)sc2nc(-c3ccccc3)nn12 | 98.22 | 89.87 | 91.24 | 85.92 | 50.72 | 85.66 | 72.09 | 107.46 | 91.77 | 89.46 | 86.7 | 56.07 | 79.8 | 94.39 | 89.57 | 76.15 | 83.77 | 99.76 | 104.88 | 
Nc1c(C(=O)NCc2ccccc2)sc2nc3c(cc12)C(=O)CCC3 |  | 99.51 | 112.13 | 109.84 | 109.76 | 106.3 | 106.49 | 105.63 | 120.38 | 122.77 | 106.63 | 102.77 | 105.31 | 101.11 | 106.46 | 113.61 | 115.69 | 122.76 | 107.63 | 100.49

Reference: ChEMBL document CHEMBL2202954, “The effect of PLC-γ2 inhibitors on the growth of human tumour cells” (2012)
